Patent US20260102401A1, “Combination Therapies” (MIRATI THERAPEUTICS, INC., priority 2022, published 2026)

Tested on: H2122 cells
Assay: H2122 cell-line derived xenograft model, tumor volumes
Type: in vivo, nude/nude mice
Conditions: for tumor growth inhibition: Day 17, single agent, H2122 xenograft, 100 mg/kg Compound 478 or 50 mg/kg olaparib p.o. daily; for Average Tumor Volumes: H2122 tumor bearing mice, 100 mg/kg Compound 478 and/or 50 mg/kg olaparib p.o. daily
Experimental: Immunocompromised nude/nude mice were inoculated in the right hind flank with cells or patient derived tumor samples harboring a KRas G12C mutation. When tumor volumes reach ˜300 mm^3 in size, the mice were divided into four groups of 5 mice each. The first group was administered vehicle only. […] The fourth group was orally administered the single agent dose of the KRas G12C inhibitor in combination with the single agent dose of the PARP inhibitor at the matched schedule. The treatment period was 17 days. Tumor volumes were measured using a caliper every two-three days and tumor volumes are calculated by the formula: […].
For example, twenty nude/nude mice were inoculated in the right hind limb with 5×10^6 H2122 cells. When tumor volume reached ˜300 mm^3 (Study Day 1), 5 mice in each of the […] groups were administered p.o. daily for 32 days: vehicle only (10% Captisol in 50 mM citrate buffer pH5.0), 100 mg/kg of KRas G12C inhibitor Compound 478 (10% Captisol in 50 mM citrate buffer, pH 5.0), 50 mg/kg of the PARP inhibitor olaparib (10% Captisol in 50 mM citrate buffer, pH 5.0), or 100 mg/kg of KRas G12C inhibitor Compound 478 and 50 mg/kg of olaparib. Dosing stopped on day 17 for all groups due to large tumor growth in the vehicle and Olaparib only groups.

Structure (SMILES) | tumor growth inhibition [%] | Average Tumor Volumes (Study Day 3) [mm^3] | Average Tumor Volumes (Study Day 6) [mm^3] | Average Tumor Volumes (Study Day 10) [mm^3] | Average Tumor Volumes (Study Day 13) [mm^3] | Average Tumor Volumes (Study Day 17) [mm^3] | Average Tumor Volumes (Study Day −1 (before dosing)) [mm^3]
O=C(c1cc(Cc2n[nH]c(=O)c3ccccc23)ccc1F)N1CCN(C(=O)C2CC2)CC1 [Olaparib, 4-[[3-[4-(cyclopropanecarbonyl)piperazine-1-carbonyl]-4-fluorophenyl]methyl]-2H-phthalazin-1-one] | 0 | 451.342 | 558.15 | 776.514 | 848.664 | 1058.96 | 292.194
C=C(F)C(=O)N1CCN(c2nc(OC[C@@H]3CCCN3C)nc3c2CCN(c2cccc4cccc(Cl)c24)C3)C[C@@H]1CC#N [Compound 478, adagrasib] | 89 | 290.578 | 301.744 | 326.222 | 345.38 | 360.308 | 284.794
